The values that follow come from patent US4027039A (priority 1975, dated 1977).

One assay relates to viral infections. Put plainly: Antiviral screening in animals, general statements. To be noted: mouse, in vivo.
Assay [1] concerns Influenza, Ann Arbor virus. Put plainly: Influenza Ann Arbor in mice, oral; schedule by table; late read day 5 (Tables 15, 25, 29, 30), 6 (18, 20, 22, 23, 26, 27, 28, 54), 7 (14, 19, 21, 24, 53, 56), 8 (16, 17, 51), 9 (11, 55). Type of assay: in vivo, mouse.
Assay [2] has as its system Influenza B Massachusetts virus. To be noted: larger doses and different dose schedules, literature; cited from earlier work.
The next assay has as its system Influenza PR 8 virus. Put plainly: Influenza PR 8 in mice, oral; schedule by table; late read day 6 (Table 37), 7 (33, 36), 8 (32, 35, 47), 10 (38); control fraction 18/20 (Table 32), 19/20 (Table 35), else 100%. To be noted: of 41 tests. It is filed as in vivo, mouse.
Assay [3] has as its system Influenza B Massachusetts virus. Description: Influenza B Mass. in mice, oral; late read day 5 (Table 39), 7 (Table 40), 11 (Tables 61, 65); control fraction 16/20 (Table 61), else 100%. It is filed as in vivo, mouse. Here is the method: A portion of a commercially available sample of amantadine was recrystallized from isopropanol. The activity of the material against Influenza B Mass. was tested for the sample as obtained, the recrystallized portion, and the mother liquor obtained from recrystallizing the portion.

Assay [4] has as its system infectious canine hepatitis. The note with it: 50 mg/kg; cited from earlier work.

For the compound `NC12CC3CC(CC(C3)C1)C2` [Commercial amantadine, amantadine, reference compound], in the assay on viral infections, the activity in words entry was “inactive against all of the other viruses in the test system”. This compound also registered an occasions with survivors in assay [1] (of 18 tests) of 5. Further, the “effect against Influenza B Massachusetts” value in assay [2] is on record as “ineffective”. The “instances of increased geometric mean survival time” value with Influenza PR 8 virus came to 11. In addition, the “statistically significant number of survivors in one single instance” value in the assay with Influenza PR 8 virus amounted to 3. Moreover, the “No. animals surviving after 11 days” value came out at 3 in assay [3] (total dose 60 ng); 3 in assay [3] (total dose 600 ng); 7 in assay [3] (total dose 6 μg); 3 in assay [3] (total dose 60 μg); 5 in assay [3] (total dose 600 μg); 4 in assay [3] (total dose 6 mg). The Survivors is given as 3 in assay [3] (total dose 600 ng); 5 in assay [3] (total dose 6 μg); 2 in assay [3] (total dose 60 μg); 5 in assay [3] (total dose 600 μg); 2 in assay [3] (total dose 6 mg).
With `O=C(CCNNC(=O)c1ccncc1)NCc1ccccc1` [Nialamide, nialamide, reference compound], the Survivors in assay [1] (total dose 400 pg) is reported as 1; in assay [1] (total dose 4 ng), 1; in assay [1] (total dose 40 ng) it was 0; in assay [1] (total dose 400 ng), 0; in assay [1] (total dose 4 μg) it was 0; in assay [1] (total dose 400 μg), 2. Besides, the Survivors in assay [1] (total dose 4 mg) was 1. The treated animals survived in assay [4] is on record as 15 of 16.
